Measured values as given in US20230192617A1, “AZABICYCLIC(THIO)AMIDES AS FUNGICIDAL COMPOUNDS” (Bayer CropScience Aktiengesellschaft, priority 2020, published 2023).

Columns and labels:
[1] = Measurement of Log P values by HPLC on reversed phase columns (EEC directive 79/831 Annex V.A8); assay type: physicochemical; details: method [a]: LC-UV, acidic range, 0.1% formic acid in water and acetonitrile as eluent
In short: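 Log P derived from retention on reversed-phase columns (EEC directive 79/831 Annex V.A8), LC-UV, acetonitrile gradient 10% to 95% against water containing 0.1% formic acid, 0.001 M ammonium acetate, or 0.1% phosphoric acid; several values per method separated by "+".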

[2] = test system: Botrytis cinerea; test: B-11. Botrytis cinerea in vitro cell test; assay type: cell-based; details: 144 h, 20 ppm of active ingredient, 6 days incubation, liquid culture, absorbance, read-out: efficacy (inhibition of fungal growth)
In short: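 B. cinerea spores were grown in liquid culture with compound (DMSO ≤1% final). Mycelium growth was measured spectrometrically after 6 days, with inhibition taken as absorbance relative to untreated control wells.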

[3] = test system: Colletotrichum lindemuthianum; test: B-8. Colletotrichum lindemuthianum in vitro cell test; assay type: cell-based; details: 144 h, 20 ppm of active ingredient, 6 days incubation, liquid culture, absorbance, read-out: efficacy (inhibition of fungal growth)
In short: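 Liquid-culture germination/growth test: compounds in ≤1% final DMSO were added to spore-containing medium. Fungal growth was quantified spectrophotometrically after 6 days of incubation and expressed as inhibition versus untreated controls.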

[4] = test system: Alternaria brassicae; test: In vivo preventive test on Alternaria brassicae (leaf spot on radish or cabbage); details: 500 ppm of active ingredient, preventive spray on radish or cabbage, evaluated 3 to 4 days after inoculation, read-out: efficacy
In short: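 Protective spray on young radish or cabbage: actives in water diluted from DMSO/acetone/Tween 80, with solvent-only controls. Leaves were challenged after 24 h with a spore suspension, and plants were held at 100% RH, 20 °C for 3 to 4 days.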

[5] = test system: Alternaria alternata; test: Alternaria alternata in vitro cell test; assay type: cell-based; details: 120 h, 20 ppm of active ingredient, liquid culture, 5 days incubation, spectrometric measurement of mycelium growth, read-out: efficacy (inhibition of fungal growth)
In short: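 Spectrometric readout of mycelial growth after 5-day incubation gauged compound effects on spore germination and growth of A. alternata in liquid medium. Compounds were delivered in DMSO at ≤1% final. Absorbance was compared with untreated controls to give inhibition.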

[6] = test system: Pyrenophora teres; test: B-10. Pyrenophora teres in vitro cell test; assay type: cell-based; details: 144 h, 20 ppm of active ingredient, 6 days incubation, liquid culture, absorbance, read-out: efficacy (inhibition of fungal growth)
In short: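 Liquid-culture assay on a P. teres spore suspension with compounds added to the medium from DMSO solutions, final DMSO ≤1%. Mycelium growth read spectrometrically after 6 days. Inhibition calculated from absorbance against untreated control wells.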

[7] = test system: Pyrenophora teres; test: In vivo preventive test on Pyrenophora teres (net blotch on barley); details: 240 h, 500 ppm of active ingredient, preventive spray on barley, evaluated 10 days after inoculation, read-out: efficacy
Procedure: (§1) B-3. In Vivo Preventive Test on Pyrenophora Teres (Net Blotch on Barley) [table] The active ingredients were made soluble and homogenized in a mixture of Dimethyl sulfoxide/Acetone/Tween® 80 and then diluted in water to the desired concentration. The young plants of barley were treated by spraying the active ingredient prepared as described above. Control plants were treated only with an aqueous solution of Acetone/Dimethyl sulfoxide/Tween® 80. After 24 hours, the plants were contaminated by spraying the leaves with an aqueous suspension of Pyrenophora teres spores. The contaminated barley plants were incubated for 48 hours at 20° C. and at 100% relative humidity and then for 8 days at 20° C. and at 70-80% relative humidity.

[8] = test system: Colletotrichum lindemuthianum; test: In vivo preventive test on Colletotrichum lindemuthianum (leaf spot on bean); details: 168 h, 500 ppm of active ingredient, preventive spray on bean, evaluated 7 days after inoculation, read-out: efficacy
Procedure: B-5. In Vivo Preventive Test on Colletotrichum lindemuthianum (Leaf Spot on Bean) [table] The active ingredients were made soluble and homogenized in a mixture of Dimethyl sulfoxide/Acetone/Tween® 80 and then diluted in water to the desired concentration. The young plants of bean were treated by spraying the active ingredient prepared as described above. Control plants were treated only with an aqueous solution of Acetone/Dimethyl sulfoxide/Tween® 80. After 24 hours, the plants were contaminated by spraying the leaves with an aqueous suspension of Colletotrichum lindemuthianum spores. The contaminated bean plants were incubated for 24 hours at 20° C. and at 100% relative humidity and then for 6 days at 20° C. and at 90% relative humidity.

[9] = test system: Botrytis cinerea; test: In vivo preventive test on Botrytis cinerea (grey mould); details: 500 ppm of active ingredient, preventive spray on gherkin or cabbage, evaluated 4 to 5 days after inoculation, read-out: efficacy
In short: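 Preventive spray on cabbage or gherkin seedlings, with compound formulated in DMSO/acetone/Tween 80 and water-diluted, preceded spore inoculation by 24 hours. Cabbage was held 4 to 5 days at 20° C., 100% relative humidity; gherkin 4 to 5 days at 17° C., 90% relative humidity.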

[10] = test system: Sphaerotheca fuliginea; test: In vivo preventive test on Sphaerotheca fuliginea (powdery mildew on cucurbits); details: Podosphaera fuliginea, 192 h; 500 ppm of active ingredient; preventive spray on gherkin; evaluated 8 days after inoculation; read-out: efficacy
Procedure: as §1, with “B-4. in vivo preventive test” for “B-3. In Vivo Preventive Test”, “Sphaerotheca fuliginea (powdery mildew” for “Pyrenophora Teres (Net Blotch”, “cucurbits)” for “Barley)”, “gherkin” for “barley”, “Sphaerotheca fuliginea” for “Pyrenophora teres”, “incubated” for “incubated for 48 hours at 20° C. and at 100% relative humidity and then”

SMILES	chromatographic logP ([1]; reversed phase HPLC column)	inhibition at 20 ppm [2]	inhibition at 20 ppm [3]	pest or weed control at 500 ppm [4]	inhibition at 20 ppm [5]	inhibition at 20 ppm [6]	pest or weed control at 500 ppm [7]	chromatographic logP [1]	pest or weed control at 500 ppm [8]	pest or weed control at 500 ppm [9]	pest or weed control at 500 ppm [10]
Cc1ccc(C(F)(F)CNC(=O)c2c(Oc3cccc(C(F)(F)F)c3)nnc3cc(F)ccc23)c(Cl)c1 [I-171]	4.66	90 to 100%	90 to 100%	90 to 100%	90 to 100%	90 to 100%	70 to 79%				
O=C(NCCc1ccc2c(c1)OCCO2)c1c(Oc2cccc(C(F)(F)F)c2)nnc2ccccc12 [I-086]		90 to 100%	90 to 100%	90 to 100%	90 to 100%	90 to 100%		3.42	90 to 100%	90 to 100%	
C=Cc1cccc(Oc2cnc3ccccc3c2C(=O)NCC(F)(F)c2ccc(C)cc2C)c1 [I-221]	4.4	90 to 100%	90 to 100%	90 to 100%	90 to 100%	90 to 100%			70 to 79%	90 to 100%	
Cc1cc(C(F)F)ccc1[C@@H](F)CNC(=O)c1c(Oc2cccc(Cl)c2)nnc2ccccc12 (racemic) [I-049]	3.84	90 to 100%	90 to 100%	90 to 100%	90 to 100%		80 to 89%			90 to 100%	
CCN(CCc1ccccc1)C(=O)c1c(Oc2cccc(C(F)(F)F)c2)nnc2ccccc12 [I-205]	4.28						80 to 89%			80 to 89%	70 to 79%
O=C(NC[C@H](F)c1ccc(Br)cc1Cl)c1c(Oc2cccc(C(F)(F)F)c2)nnc2c1OCCO2 (racemic) [I-105]	3.48		90 to 100%	90 to 100%	90 to 100%				90 to 100%	90 to 100%	90 to 100%
Cc1ccc2c(C(=O)NC[C@H](F)c3ccc(Br)cc3Cl)c(Oc3cccc(C(F)(F)F)c3)nnc2c1 (racemic) [I-046]	4.57		90 to 100%	90 to 100%	90 to 100%				90 to 100%	90 to 100%	90 to 100%
Cc1ccc([C@@H](F)CNC(=O)c2c(Oc3cccc(C(F)(F)F)c3)cnc3ccccc23)c(Cl)c1 (racemic) [I-060]	4.4	90 to 100%	90 to 100%	90 to 100%	90 to 100%				90 to 100%	90 to 100%	90 to 100%
Cc1ccc([C@@H](F)CNC(=O)c2c(Oc3cccc(C(F)(F)F)c3)cnc3ccccc23)cc1C (racemic) [I-056]	4.33	90 to 100%	90 to 100%	90 to 100%	90 to 100%				90 to 100%	90 to 100%	90 to 100%
